Measurements reported in article PMC6661766, “Antimicrobial, antioxidant and cytotoxic evaluation of diazenyl chalcones along with insights to mechanism of interaction by molecular docking studies” (BMC Chemistry, 2019).
≈ marks a conversion by molar mass, not a printed value. Where “and” joins values, the source holds several entries; their conditions need not be identical. Identical values can stand only once.

Columns and labels:
A. fumigatus = assay: Antimicrobial serial tube dilution, MIC and MFC; format: cell-based, Aspergillus fumigatus MTCC 2584; conditions: Aspergillus fumigatus; for MIC: 168 h, read-out: A. fumigatus MIC; for MFC: read-out: A. fumigatus MFC
Experimental: (§1) The synthesized diazenyl chalcones (C18 to C27) and controls (dyes A and E, and chalcone) were assessed for their antimicrobial activity by estimation of MIC and MBC/MFC values. […] The stock solutions of the test compounds and standard drugs having a concentration of 1000 µg ml^−1 were prepared by dissolving the used compounds in DMSO. The nutrient broth/Sabouraud dextrose broth was used for the serial dilution of the test compounds and referenced drugs for bacterial and fungal cultures, respectively. […] The size of the final inoculum in each test tube was taken as 5 × 10^5 CFU ml^−1. The incubation of the test and standard compounds of varying concentrations was done for 24 h at 37 ± 2 °C (bacterial culture) and for 48 h at 37 ± 2 °C (C. albicans) and for 7 d at 25 ± 2 °C (A. fumigatus). The diazenyl chalcones (C18–C27), were further evaluated for their bactericidal/fungicidal activity by estimation of MBC/MFC values. […] For proper mixing of culture media, the plates were shaken gently followed by incubation at the predefined temperature and time as stated earlier, followed by the visual inspection of the plates for signs of microbial growth.

[1] = DPPH scavenging antioxidant assay; conditions: for log IC50 DPPH: Fig. 1
Experimental: The derivatives (C18–C27) were assessed for their antioxidant potential in the presence of the stable free radical DPPH using ascorbic acid as the standard compound [36, 37]. […] The total volume of 200 µl was used in each well for each concentration of the test and standard drug containing 0.004 µg DPPH. The assay was performed in triplicate at all concentrations of each sample and standard compound. DPPH solutions in methanol at the same concentration without test drugs were used as the control. Each concentration of the sample and standard has a different blank. To minimize evaporation, the plate was covered with the lid and wrapped in aluminium foil and kept in the dark place in order to protect the DPPH radical from degradation by light and left for 30 min. After 30 min of incubation, the plate was kept in ELISA reader to measure the absorbance values at 517 nm. The experiment was performed in triplicate. The antioxidant activity of each sample was then calculated as per cent inhibition of DPPH according to the following equation: %decolourationofDPPH=ControlAbs-SampleAbs×100/ControlAbs

B. cereus = assay: Antimicrobial serial tube dilution, MIC and MBC; format: cell-based, Bacillus cereus MTCC 1305; conditions: Bacillus cereus; for MIC: 24 h, read-out: B. cereus MIC; for MBC: read-out: B. cereus MBC
Experimental: as §1

S. typhi = assay: Antimicrobial serial tube dilution, MIC and MBC; format: cell-based, Salmonella typhi MTCC 3216; conditions: Salmonella enterica, TYPHI; for MIC: 24 h, read-out: S. typhi MIC; for MBC: read-out: S. typhi MBC
Experimental: as §1

S. aureus = assay: Antimicrobial serial tube dilution, MIC and MBC; format: cell-based, Staphylococcus aureus MTCC 2901; conditions: Staphylococcus aureus; for MIC: 24 h, read-out: S. aureus MIC; for MBC: read-out: S. aureus MBC
Experimental: as §1

[2] = tested on: A549 human lung cancer cell line; assay: MTT cytotoxicity assay, A549; format: cell-based; conditions: for IC50: Homo sapiens, A549, MTT, 48 h
Experimental: (§2) The cell lines employed in the investigation were purchased from the National Centre for Cell Sciences (NCCS), Pune, India. The cell lines were cultured in DMEM fortified with 10% FBS, L-glutamine, sodium bicarbonate, and solution of antibiotics (streptomycin 100 μg ml^−1 + penicillin-100 U ml^−1). The culture of cell lines was stored under 5% CO2 incubation at 37 °C.
(§3) The compounds showing maximum activity (antimicrobial and antioxidant potential) were screened for cytotoxicity against A549 and HEK cell lines using MTT assay. Initially, 96-well microculture plate was seeded with 1 × 10^4 cells in 100 µl/well DMEM/MEM, supplemented with 10% FBS followed by incubation at a temperature of 37 °C for a period of 24 h under 5% CO2 atmosphere. After that, the test compounds and camptothecin were added to the cells to achieve a concentration of 10, 25, 50 and 100 µg. MTT reagent (10 µl) of concentration of 5 mg ml^−1 added to all the wells after the duration of 48 h. The plate was incubated further for 4 h followed by careful removal of supernatant from each well. To dissolve the formazan crystals, 100 µl of DMSO was added, and the ELISA reader was used to check the absorbance at 570 nm wavelength. In order to calculate the IC50 concentration, the following equation, i.e. A = Bx + C, was used. In this case, A = 50, while the values B and C values were obtained from the survival curve plot. This study was carried out in duplicate.

E. coli = assay: Antimicrobial serial tube dilution, MIC and MBC; format: cell-based, Escherichia coli MTCC 1652; conditions: for E. coli MIC: 24 h at 37 ± 2 °C; for MIC / MBC: Escherichia coli; for MIC: 24 h, read-out: E. coli MIC, 24 h at 37 ± 2 °C; for MBC: read-out: E. coli MBC
Experimental: as §1

B. subtilis = assay: Antimicrobial serial tube dilution, MIC and MBC; format: cell-based, Bacillus subtilis MTCC 2063; conditions: Bacillus subtilis; for MIC: 24 h, read-out: B. subtilis MIC; for MBC: read-out: B. subtilis MBC
Experimental: as §1

C. albicans = assay: Antimicrobial serial tube dilution, MIC and MFC; format: cell-based, Candida albicans MTCC 227; conditions: Candida albicans; for MIC: 48 h, read-out: C. albicans MIC; for MFC: read-out: C. albicans MFC
Experimental: as §1

[3] = tested on: HEK human embryonic kidney cells; assay: MTT cytotoxicity assay, HEK; format: cell-based; conditions: 48 h
Experimental: as §2, §3

tested bacterial strains = assay: Antimicrobial serial tube dilution, ranges over several bacterial strains; format: cell-based; conditions: B. cereus, S. typhi and S. aureus
Experimental: as §1

SMILES	melting point [°C]	MIC (A. fumigatus) [µg/mL]	MFC (A. fumigatus) [µg/mL]	IC50 DPPH [1]	% inhibition of DPPH ([1]; 1.56 µg ml^−1) [%]	% inhibition of DPPH ([1]; 3.12 µg ml^−1) [%]	% inhibition of DPPH ([1]; 6.25 µg ml^−1) [%]	% inhibition of DPPH ([1]; 12.5 µg ml^−1) [%]	% inhibition of DPPH ([1]; 25 µg ml^−1) [%]	% inhibition of DPPH ([1]; 50 µg ml^−1) [%]	% inhibition of DPPH ([1]; 100 µg ml^−1) [%]	MIC (B. cereus) [µg/mL]	MBC (B. cereus) [µg/mL]	MIC (S. typhi) [µg/mL]	MBC (S. typhi) [µg/mL]	MIC (S. aureus) [µg/mL]	MBC (S. aureus) [µg/mL]	MIC (E. coli) [µg/mL]	MBC (E. coli) [µg/mL]	MIC (B. subtilis) [µg/mL]	further results
O=Cc1ccc(/C=C\C(=O)c2ccc(N=Nc3c(O)cccc3O)cc2)cc1 [Compound C-23, 4-((1Z)-3-(4-((2,6-Dihydroxyphenyl)diazenyl)phenyl)-3-oxoprop-1-en-1-yl)benzaldehyde]	182 to 184	62.5 (≈ 168 µM)	125 (≈ 336 µM)	17.82 µg/mL (≈ 47.9 µM)	19.03	25.53	35.86	50.45	70.53	83.17	95.68	62.5 (≈ 168 µM)	62.5 (≈ 168 µM)	31.2 (≈ 83.9 µM)	62.5 (≈ 168 µM)	125 (≈ 336 µM)	125 (≈ 336 µM)	7.81 to 15.6 (≈ 21 to 41.9 µM)	15.6 (≈ 41.9 µM)	62.5 (≈ 168 µM)	log IC50 DPPH [1]: 1.251; IC50 [2]: 171 ± 2.46 µg/mL (≈ 460 µM); E. coli MIC (E. coli): 15.62 µg/mL; MBC (B. subtilis): 62.5 µg/mL (≈ 168 µM); MIC (C. albicans): 125 µg/mL (≈ 336 µM); MFC (C. albicans): 125 µg/mL (≈ 336 µM); IC50 [3]: 190.1 ± 1.56 µg/mL (≈ 511 µM)
O=Cc1ccc(/C=C\C(=O)c2cccc(N=Nc3cccc(Cl)c3Cl)c2O)cc1 [Compound C-25, 4-((1Z)-3-(3-((2,3-Dichlorophenyl)diazenyl)-2-hydroxyphenyl)-3-oxoprop-1-en-1-yl)benzaldehyde]	96 to 98	62.5 (≈ 147 µM)	62.5 (≈ 147 µM)	> 100 µg/mL	9.71	10.38	11.36	13.56	14.91	15.67	20.34	125 (≈ 294 µM)	125 (≈ 294 µM)	125 (≈ 294 µM)	125 (≈ 294 µM)	62.5 (≈ 147 µM)	62.5 (≈ 147 µM)	62.5 (≈ 147 µM)	125 (≈ 294 µM)	15.6 (≈ 36.7 µM)	Morphological changes in A549 cell line ([2]; C-25 at 50 and 25 µg ml^−1, Fig. 2): reduced the number and clumping of A549 cells to a significant extent; IC50 [2]: 18 ± 1.34 µg/mL (≈ 42.3 µM); Cytotoxicity against A549 cell line in words ([2]; compared with camptothecin): comparable cytotoxicity to camptothecin; MBC (B. subtilis): 62.5 µg/mL (≈ 147 µM); MIC (C. albicans): 31.2 µg/mL (≈ 73.5 µM); MFC (C. albicans): 62.5 µg/mL (≈ 147 µM); IC50 [3]: 270 ± 2.82 µg/mL (≈ 635 µM)
O=C(/C=C\c1ccc(Cl)cc1Cl)c1cccc(N=Nc2cccc(Cl)c2Cl)c1O [Compound C-19, (2Z)-3-(2,4-Dichlorophenyl)-1-(3-((2,3-dichlorophenyl)diazenyl)-2-hydroxyphenyl)prop-2-en-1-one]	112 to 114	125 (≈ 268 µM)	250 (≈ 536 µM)	> 100 µg/mL	6.64	7.71	9.39	10.87	12.99	15.22	24.49	500 (≈ 1070 µM)	500 (≈ 1070 µM)	125 (≈ 268 µM)	125 (≈ 268 µM)	125 (≈ 268 µM)	125 (≈ 268 µM)	500 (≈ 1070 µM)	500 (≈ 1070 µM)	15.6 (≈ 33.5 µM)	IC50 [2]: 140.2 ± 1.11 µg/mL (≈ 301 µM); MBC (B. subtilis): 62.5 µg/mL (≈ 134 µM); MIC (C. albicans): 125 µg/mL (≈ 268 µM); MFC (C. albicans): 125 µg/mL (≈ 268 µM); IC50 [3]: 221 ± 3.23 µg/mL (≈ 474 µM)
COc1ccccc1/C=C\C(=O)c1ccc(N=Nc2c(O)cccc2O)cc1 [Compound C-27, (2Z)-1-(4-((2,6-Dihydroxyphenyl)diazenyl)phenyl)-3-(2-methoxyphenyl)prop-2-en-1-one]	320 to 322	125 (≈ 334 µM)	125 (≈ 334 µM)	7.112 µg/mL and 7.12 µg/mL	26.13	34.18	54.67	82.21	93.45	95.71	96.62	125 (≈ 334 µM)	125 (≈ 334 µM)	62.5 (≈ 167 µM)	62.5 (≈ 167 µM)	62.5 (≈ 167 µM)	62.5 (≈ 167 µM)	7.81 to 15.6 (≈ 20.9 to 41.7 µM)	15.6 (≈ 41.7 µM)	15.6 (≈ 41.7 µM)	log IC50 DPPH [1]: 0.8520; IC50 [2]: 124 ± 2.56 µg/mL (≈ 330 µM); E. coli MIC (E. coli): 7.81 µg/mL; MBC (B. subtilis): 31.2 µg/mL (≈ 83.5 µM); MIC (C. albicans): 62.5 µg/mL (≈ 167 µM); MFC (C. albicans): 62.5 µg/mL (≈ 167 µM); IC50 [3]: 330.6 ± 2.9 µg/mL (≈ 883 µM)
O=C(/C=C\c1ccco1)c1ccc(N=Nc2c(O)cccc2O)cc1 [Compound C-24, (2Z)-1-(4-((2,6-Dihydroxyphenyl)diazenyl)phenyl)-3-(furan-2-yl)prop-2-en-1-one]	315 to 317	125 (≈ 374 µM)	125 (≈ 374 µM)	15.88 µg/mL (≈ 47.5 µM)	24.16	26.13	34.65	54.71	77.38	96.46	99.17	15.6 (≈ 46.7 µM)	15.6 (≈ 46.7 µM)	7.58 (≈ 22.7 µM)	15.6 (≈ 46.7 µM)	15.6 (≈ 46.7 µM)	15.6 (≈ 46.7 µM)	7.81 to 15.6 (≈ 23.4 to 46.7 µM)	31.2 (≈ 93.5 µM)	31.2 (≈ 93.5 µM)	log IC50 DPPH [1]: 1.201; IC50 [2]: 109 ± 3.21 µg/mL (≈ 326 µM); E. coli MIC (E. coli): 15.62 µg/mL; MBC (B. subtilis): 62.5 µg/mL (≈ 187 µM); MIC (C. albicans): 62.5 µg/mL (≈ 187 µM); MFC (C. albicans): 125 µg/mL (≈ 374 µM); MBC range (tested bacterial strains): 15.62 to 31.25 µg/mL; MIC range (tested bacterial strains): 7.81 to 15.62 µg/mL; IC50 [3]: 280.4 ± 1.21 µg/mL (≈ 839 µM)
O=C(/C=C/c1ccc(Cl)cc1Cl)c1ccc(O)c(N=Nc2cccc(Cl)c2Cl)c1 [Compound C-18, (2E)-3-(2,4-Dichlorophenyl)-1-(3-((2,3-dichlorophenyl)diazenyl)-4-hydroxyphenyl)prop-2-en-1-one]	110 to 112	125 (≈ 268 µM)	125 (≈ 268 µM)	> 100 µg/mL	7.21	8.76	9.37	12.35	15.68	21.79	31.98	31.2 (≈ 67 µM)	125 (≈ 268 µM)	31.2 (≈ 67 µM)	125 (≈ 268 µM)	31.2 (≈ 67 µM)	125 (≈ 268 µM)	7.81 to 15.6 (≈ 16.8 to 33.5 µM)	62.5 (≈ 134 µM)	125 (≈ 268 µM)	E. coli MIC (E. coli): 15.62 µg/mL; MBC (B. subtilis): 125 µg/mL (≈ 268 µM); MIC (C. albicans): 125 µg/mL (≈ 268 µM); MFC (C. albicans): 125 µg/mL (≈ 268 µM)
